The results in this text go back to ChEMBL document CHEMBL3352509, “Cyclic tertiary sulfamates: selective inhibition of the tumor-associated carbonic anhydrases IX and XII by N- and O-substituted acesulfame derivatives” (Eur J Med Chem, 2014).

Structures are written as SMILES. Some results are limits rather than exact numbers.

For one assay, the target named is Carbonic anhydrase 12 (Homo sapiens, UniProt O43570). Kind of assay: Inhibition of human recombinant carbonic anhydrase 12 by stopped flow CO2 hydration method.
Sequence of Carbonic anhydrase 12 (O43570 whole entry): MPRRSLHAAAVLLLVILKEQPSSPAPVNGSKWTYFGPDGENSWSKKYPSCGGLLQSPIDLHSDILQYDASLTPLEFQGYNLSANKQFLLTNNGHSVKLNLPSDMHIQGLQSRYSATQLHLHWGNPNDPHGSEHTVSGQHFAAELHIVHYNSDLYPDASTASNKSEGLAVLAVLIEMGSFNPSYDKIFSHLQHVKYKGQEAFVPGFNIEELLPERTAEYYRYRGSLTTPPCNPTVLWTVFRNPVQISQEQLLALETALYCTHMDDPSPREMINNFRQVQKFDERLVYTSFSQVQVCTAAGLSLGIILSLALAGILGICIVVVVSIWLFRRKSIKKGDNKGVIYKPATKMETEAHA
The target in the next assay is Carbonic anhydrase 9 (Homo sapiens, UniProt Q16790). Nature of the assay: Inhibition of human recombinant carbonic anhydrase 9 by stopped flow CO2 hydration method.
In another assay the target is Carbonic anhydrase 2 (Homo sapiens, UniProt P00918). Nature of the assay: Inhibition of human recombinant carbonic anhydrase 2 by stopped flow CO2 hydration method.
In the next assay the target is Carbonic anhydrase 1 (Homo sapiens, UniProt P00915). Kind of assay: Inhibition of human recombinant carbonic anhydrase 1 by stopped flow CO2 hydration method.
Sequence of Carbonic anhydrase 1 (P00915 whole entry): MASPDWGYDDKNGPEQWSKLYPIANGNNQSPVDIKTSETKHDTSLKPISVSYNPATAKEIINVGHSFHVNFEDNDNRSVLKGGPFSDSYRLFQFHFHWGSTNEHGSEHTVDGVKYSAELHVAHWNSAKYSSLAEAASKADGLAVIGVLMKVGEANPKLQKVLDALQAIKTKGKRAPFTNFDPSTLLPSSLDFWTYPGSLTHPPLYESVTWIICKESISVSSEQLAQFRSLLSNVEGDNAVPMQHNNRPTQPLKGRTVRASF

As for `C=CCN1C(=O)C=C(C)OS1(=O)=O`, the Ki at Carbonic anhydrase 12 was 0.103 µM; at Carbonic anhydrase 9, 0.114 µM; on Carbonic anhydrase 2 it was above 20 µM; at Carbonic anhydrase 1, above 20 µM.

Consider `C=CCOC1=NS(=O)(=O)OC(C)=C1`, for which the inhibition constant (Ki) is 0.199 µM on Carbonic anhydrase 9, above 20 µM at Carbonic anhydrase 2 and above 20 µM on Carbonic anhydrase 1.

As for `C#CCOC1=NS(=O)(=O)OC(C)=C1`, the inhibitory constant (Ki) on Carbonic anhydrase 2 and at Carbonic anhydrase 1 was above 20 µM each time.

`CC1=CC(OCC#N)=NS(=O)(=O)O1`: the figures for the inhibitory constant (Ki) on Carbonic anhydrase 9, at Carbonic anhydrase 2 and on Carbonic anhydrase 1 were 0.047 µM, above 20 µM and 2.9 µM, respectively.

On to `CC(=O)CN1C(=O)C=C(C)OS1(=O)=O`, for which the inhibition constant (Ki) on Carbonic anhydrase 9 was above 20 µM; at Carbonic anhydrase 2, 2.18 µM; at Carbonic anhydrase 1, 15.6 µM.

For the molecule `CC(=O)COC1=NS(=O)(=O)OC(C)=C1`, the Ki at Carbonic anhydrase 9 is above 20 µM; on Carbonic anhydrase 2, above 20 µM; at Carbonic anhydrase 1, 2.49 µM.

`CCOC(=O)CN1C(=O)C=C(C)OS1(=O)=O`: the figures for the Ki at Carbonic anhydrase 9, on Carbonic anhydrase 2 and at Carbonic anhydrase 1 were 0.047 µM, above 20 µM and above 20 µM, respectively.

For `CCOC(=O)COC1=NS(=O)(=O)OC(C)=C1`, the Ki at Carbonic anhydrase 9 was 0.043 µM; on Carbonic anhydrase 2 it was above 20 µM; on Carbonic anhydrase 1, above 20 µM.

`CC1=CC(=O)N(Cc2ccccc2[N+](=O)[O-])S(=O)(=O)O1`: the inhibition constant Ki was 0.041 µM on Carbonic anhydrase 9, above 20 µM on Carbonic anhydrase 2 and above 20 µM at Carbonic anhydrase 1.

For the molecule `CC1=CC(OCc2ccccc2[N+](=O)[O-])=NS(=O)(=O)O1`, the Ki is 0.041 µM at Carbonic anhydrase 9, above 20 µM on Carbonic anhydrase 2 and above 20 µM at Carbonic anhydrase 1.

Regarding `CC1=CC(=O)N(Cc2cccc([N+](=O)[O-])c2)S(=O)(=O)O1`, the Ki is 0.267 µM at Carbonic anhydrase 9, above 20 µM at Carbonic anhydrase 2 and above 20 µM on Carbonic anhydrase 1.

`CC1=CC(OCc2cccc([N+](=O)[O-])c2)=NS(=O)(=O)O1`: the inhibition constant (Ki) at Carbonic anhydrase 9, on Carbonic anhydrase 2 and on Carbonic anhydrase 1 was above 20 µM in each case.

As to `CC1=CC(OCc2ccccc2Br)=NS(=O)(=O)O1`, the Ki on Carbonic anhydrase 9 is 0.249 µM; on Carbonic anhydrase 2 it was above 20 µM; at Carbonic anhydrase 1, above 20 µM.

On to `CC1=CC(=O)N(Cc2cccc(Br)c2)S(=O)(=O)O1`, for which the Ki was 0.284 µM at Carbonic anhydrase 9, above 20 µM at Carbonic anhydrase 2 and above 20 µM on Carbonic anhydrase 1.

Consider `CC1=CC(=O)N(Cc2ccccc2F)S(=O)(=O)O1`, for which the Ki was 0.285 µM on Carbonic anhydrase 9, above 20 µM at Carbonic anhydrase 2 and above 20 µM at Carbonic anhydrase 1.

On to `CC1=CC(=O)N(Cc2cccc(F)c2)S(=O)(=O)O1`, for which the results for the Ki on Carbonic anhydrase 9, on Carbonic anhydrase 2 and at Carbonic anhydrase 1 were 0.275 µM, above 20 µM and above 20 µM, respectively.

For `CC1=CC(OCc2cccc(F)c2)=NS(=O)(=O)O1`, the Ki at Carbonic anhydrase 9, at Carbonic anhydrase 2 and on Carbonic anhydrase 1 was above 20 µM each time.

As for `CC1=CC(=O)N(Cc2c(F)cccc2F)S(=O)(=O)O1`, the Ki at Carbonic anhydrase 9, at Carbonic anhydrase 2 and on Carbonic anhydrase 1 was above 20 µM in each case.

For the molecule `CC1=CC(=O)N(Cc2ccc(C#N)cc2)S(=O)(=O)O1`, the Ki at Carbonic anhydrase 9 was 0.309 µM; at Carbonic anhydrase 2, above 20 µM; at Carbonic anhydrase 1, above 20 µM.

As to `CC1=CC(=O)N(CC(=O)c2ccccc2)S(=O)(=O)O1`, the Ki at Carbonic anhydrase 9 is 0.0057 µM; at Carbonic anhydrase 2, above 20 µM; on Carbonic anhydrase 1, above 20 µM.

On to `CC1=CC(OCC(=O)c2ccccc2)=NS(=O)(=O)O1`, for which the inhibition constant Ki is 0.0153 µM at Carbonic anhydrase 9, above 20 µM at Carbonic anhydrase 2 and above 20 µM on Carbonic anhydrase 1.

Consider `CC1=CC(=O)N(CC(=O)c2cccc([N+](=O)[O-])c2)S(=O)(=O)O1`, for which the Ki on Carbonic anhydrase 9 came to 0.0168 µM; at Carbonic anhydrase 2 it was 0.0255 µM; on Carbonic anhydrase 1, 1.3 µM.
